In experiment [1] the target is T1, human orexin 2 receptor (Homo sapiens, UniProt O43614).
T1 construct: expressed in transfected cells
T1 sequence (O43614 1-444): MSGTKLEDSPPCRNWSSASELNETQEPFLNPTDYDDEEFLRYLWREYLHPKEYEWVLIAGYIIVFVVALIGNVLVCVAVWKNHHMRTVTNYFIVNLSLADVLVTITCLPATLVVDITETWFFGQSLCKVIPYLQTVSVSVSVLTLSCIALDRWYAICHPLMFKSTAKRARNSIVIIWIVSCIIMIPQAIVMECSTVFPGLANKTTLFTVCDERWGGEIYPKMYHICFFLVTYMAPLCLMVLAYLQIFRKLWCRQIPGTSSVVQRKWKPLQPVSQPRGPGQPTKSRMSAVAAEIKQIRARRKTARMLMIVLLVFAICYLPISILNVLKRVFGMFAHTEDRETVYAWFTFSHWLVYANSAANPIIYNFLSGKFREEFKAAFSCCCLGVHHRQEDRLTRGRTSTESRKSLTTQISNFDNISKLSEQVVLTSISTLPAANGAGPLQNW
The experiment can be described thus: Radioligand binding assay ([3H]-SB649868 competition), human orexin 2 receptor. The following applies: radioligand [3H]-SB649868; read-out: Binding hOx2R Kd. On the procedure: Radioligand Binding Assay
For crude cell membrane preparations, cells (CHO, Chinese hamster ovary or HEK, human embryonic kidney) expressing human orexin 1 or human orexin 2 receptors, were washed with HEPES (10 mM, pH 7.5), scraped off the culture plates with the same buffer, and centrifuged at 4° C. for 5 min at 2500×g. The cell pellet was either stored at −80° C. or used directly. Before the experiments, cell membranes were re-suspended in binding assay buffer (10 mM HEPES, 0.5% (w/v) bovine serum albumin, pH 7.5) by homogenisation with a Polytron homogeniser at 50 Hz for 20 s. Cell membranes were also used as made available by commercial providers.
Bound radioactivity was measured, and data were analysed with the program XLFIT or Graphpad Prism. Protein concentration was determined according to the Bradford/BioRad Protein Assay Kit.
In competition experiments, cell homogenates (150 μl) were incubated in assay buffer (10 mM HEPES, pH 7.5, 0.5% (w/v) bovine serum albumin, 5 mM MgCl2, 1 mMCaCl2, and tween 0.05%) for 1 h at room temperature with about 1 nM of the radioligand [^3H]-SB649868, 66 Ci/mmole, 50 μl), and with various concentrations of compounds of the invention (50 μl) in triplicates; non-specific binding was determined in the presence of almorexant (10 μM). Reactions were terminated by vacuum filtration, 3 washes of ice cold wash buffer (Tris-HCl pH 7.4/10 mM, with NaCl 154 mM). Competition data is expressed in Table 1 as Kd [μM].

For experiment [2], the target named is T2, human orexin 1 receptor (Homo sapiens, UniProt O43613).
T2 construct: expressed in transfected cells
T2 sequence (O43613 1-425): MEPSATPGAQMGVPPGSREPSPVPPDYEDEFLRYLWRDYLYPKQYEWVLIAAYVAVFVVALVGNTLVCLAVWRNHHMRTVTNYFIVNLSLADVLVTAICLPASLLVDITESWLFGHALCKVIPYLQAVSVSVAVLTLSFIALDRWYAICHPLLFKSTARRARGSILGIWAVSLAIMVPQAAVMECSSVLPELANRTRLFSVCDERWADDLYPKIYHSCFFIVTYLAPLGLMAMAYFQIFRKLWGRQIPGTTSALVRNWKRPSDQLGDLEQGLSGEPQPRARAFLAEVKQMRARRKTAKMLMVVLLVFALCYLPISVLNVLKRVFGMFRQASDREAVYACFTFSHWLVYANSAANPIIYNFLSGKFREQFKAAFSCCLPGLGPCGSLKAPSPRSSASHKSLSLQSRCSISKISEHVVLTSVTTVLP
The experiment can be described thus: Calcium accumulation in cells (FLIPR), antagonism of orexin A, human orexin 1 receptor. The format is cell-based. The following applies: for inhibition at 10 µM: measured at a concentration of 10 μM of compound, read-out: FLIPR hOx1R % inhibition; for Ki: calcium accumulation, antagonism of orexin A, Cheng-Prusoff corrected, read-out: FLIPR hOx1R Ki.

The target in experiment [3] is T1, human orexin 2 receptor. The experiment can be described thus: Calcium accumulation in cells (FLIPR), antagonism of orexin A, human orexin 2 receptor. Format: cell-based. The following applies: calcium accumulation, antagonism of orexin A, Cheng-Prusoff corrected; read-out: FLIPR hOx2R Ki.

As to `COc1cccc(-c2sc(C)nc2CN2CCNC3(CCN(c4nc(C)cc(C#N)n4)CC3)C2=O)c1` [Example 1.25, 2-(4-((5-(3-Methoxyphenyl)-2-methylthiazol-4-yl)methyl)-5-oxo-1,4,9-triazaspiro[5.5]undecan-9-yl)-6-methylpyrimidine-4-carbonitrile], the Kd in experiment [1] amounted to 394 nM. Also, in experiment [2], the inhibition at 10 µM worked out at 31%. In addition, the Ki in experiment [3] amounted to 76 nM.

As to `COc1cc(C)nc(N2CCC3(CCN(Cc4n[nH]c5ccccc45)C3=O)CC2)n1` [Example 3.21, 2-((1H-indazol-3-yl)methyl)-8-(4-methoxy-6-methylpyrimidin-2-yl)-2,8-diazaspiro[4.5]decan-1-one], the Kd in experiment [1] turned out to be 699 nM. Besides, the Ki in experiment [2] came to 1010 nM; in experiment [3] it was 117 nM.

Take `COCc1noc(-c2ccccc2CN2CCNC3(CCN(c4nc(C)cc(C)n4)CC3)C2=O)n1` [Example 1.63, 9-(4,6-dimethyl-pyrimidin-2-yl)-4-(2-(3-(methoxymethyl)-1,2,4-oxadiazol-5-yl)benzyl)-1,4,9-triazaspiro[5.5] undecan-5-one]: the Kd in experiment [1] is 252 nM. Further, the Ki in experiment [2] was determined as 4080 nM; in experiment [3], 46 nM.

With `COCc1cccc(-c2nn(C)nc2CN2CCNC3(CCN(c4nc(C)cc(C)n4)CC3)C2=O)c1` [Example 1.76, 9-(4,6-dimethyl-pyrimidin-2-yl)-4-((5-(3-(methoxy-methyl)phenyl)-2-methyl-2H-1,2,3-triazol-4-yl)methyl)-1,4,9-triazaspiro[5.5] undecan-5-one], in experiment [1], the Kd was found to be 174 nM. Moreover, the results for the Ki in experiment [2] and in experiment [3] were 1640 nM and 86 nM, respectively.

Regarding `Cc1cc(C)nc(N2CCC3(CC2)OCCN(Cc2n[nH]nc2-c2ccccc2)C3=O)n1` [Example 2.14, 9-(4,6-Dimethylpyrimidin-2-yl)-4-((5-phenyl-2H-1,2,3-triazol-4-yl)methyl)-1-oxa-4,9-diazaspiro[5.5]undecan-5-one], the dissociation constant (Kd) in experiment [1] stood at 241 nM. Further, the values for the Ki in experiment [2] and in experiment [3] were 2720 nM and 50 nM, respectively.

Take `COc1cccc(-c2oc(C)nc2CN2CCNC3(CCN(c4nc(C)cc(C#N)n4)CC3)C2=O)c1` [Example 1.16, 2-(4-((5-(3-Methoxyphenyl)-2-methyloxazol-4-yl)methyl)-5-oxo-1,4,9-triazaspiro[5.5]undecan-9-yl)-6-methylpyrimidine-4-carbonitrile]: in experiment [1], the Kd was found to be 188 nM. In addition, the inhibition at 10 µM in experiment [2] worked out at 35%. Moreover, the Ki in experiment [3] was determined as 31 nM.

As to `Cc1cc(C)nc(N2CCC3(CCN(Cc4c[nH]c5ccccc45)C3=O)CC2)n1` [Example 3.1, 2-((1H-Indol-3-yl)methyl)-8-(4,6-dimethylpyrimidin-2-yl)-2,8-diazaspiro[4.5]decan-1-one], the Kd in experiment [1] was determined as 228 nM. Further, the Ki was found to be 1900 nM in experiment [2] and 32 nM in experiment [3].

Take `Cc1cc(C)nc(N2CCC3(CC2)NCCN(Cc2nn(C)cc2-c2cccc(N(C)C)c2)C3=O)n1` [Example 1.58]: in experiment [2], the inhibition at 10 µM turned out to be 17%. In addition, in experiment [3], the Ki worked out at 458 nM.

`Cc1cc(C)nc(N2CCC3(CCN(Cc4c[nH]c5ccccc45)C3=O)C2)c1` (stereo not shown) [Example 5.29, 2-((1H-indol-3-yl)methyl)-7-(4,6-dimethylpyridin-2-yl)-2,7-diazaspiro[4.4]nonan-1-one]: the figures for the inhibition constant Ki in experiment [2] and in experiment [3] were 1490 nM and 114 nM, respectively.

On to `Cc1noc(-c2ccnc(N3CCC4(CCN(Cc5c[nH]c6ccccc56)C4=O)C3)c2)n1` (stereo not shown) [Example 5.34, 2-((1H-indol-3-yl)methyl)-7-(4-(3-methyl-1,2,4-oxadiazol-5-yl)pyridin-2-yl)-2,7-diazaspiro[4.4]nonan-1-one], for which the results for the Ki in experiment [2] and in experiment [3] were 2150 nM and 1470 nM, respectively.

For the compound `COc1cc(N2CCC3(CCN(Cc4c[nH]c5ccccc45)C3=O)C2)nc(C2CC2)n1` (stereo not shown) [Example 5.21, 2-((1H-indol-3-yl)methyl)-7-(2-cyclopropyl-6-methoxypyrimidin-4-yl)-2,7-diazaspiro[4.4]nonan-1-one], the Ki in experiment [2] amounted to 1300 nM; in experiment [3], 370 nM.

With `COc1cccc(-c2n[nH]nc2CN2CCC3(CCN(c4nccc(OC)n4)C3)C2=O)c1` (stereo not shown) [Example 5.14, 2-((5-(3-Methoxyphenyl)-2H-1,2,3-triazol-4-yl)methyl)-7-(4-methoxypyrimidin-2-yl)-2,7-diazaspiro[4.4]nonan-1-one], the Ki in experiment [2] came out at 544 nM; in experiment [3], 146 nM.

For the compound `Cc1cc(C)nc(N2CCC3(CC2)COC(=O)N3Cc2c[nH]c3ccccc23)n1` [Example 8.24, 1-((1H-Indol-3-yl)methyl)-8-(4,6-dimethylpyrimidin-2-yl)-3-oxa-1,8-diazaspiro[4.5]decan-2-one], the inhibition at 10 µM in experiment [2] is 21%. In experiment [3], the Ki was 448 nM.

Turning to `Cc1cc(C)nc(N2CCC3(CC2)NCCN(Cc2nn(C)cc2-c2cccc(-n4cccn4)c2)C3=O)n1` [Example 1.57, 4-((4-(3-(1H-Pyrazol-1-yl)phenyl)-1-methyl-1H-pyrazol-3-yl)methyl)-9-(4,6-dimethyl-pyrimidin-2-yl)-1,4,9-triazaspiro[5.5] undecan-5-one], the Ki came to 2670 nM in experiment [2] and 175 nM in experiment [3].

Consider `COc1ccnc(N2CCC3(CC2)NCCN(Cc2c[nH]c4ccccc24)C3=O)n1` [Example 1.7, 4-((1H-Indol-3-yl)methyl)-9-(4-methoxypyrimidin-2-yl)-1,4,9-triazaspiro[5.5] undecan-5-one], for which, in experiment [2], the inhibition at 10 µM turned out to be 35%. Besides, the Ki in experiment [3] was 101 nM.

For the compound `Cc1cc(C)nc(N2CCC3(CC2)NCCN(Cc2nc(C)oc2-c2ccccc2)C3=O)n1` [Example 1.19, 9-(4,6-Dimethyl-pyrimidin-2-yl)-4-((2-methyl-5-phenyloxazol-4-yl)methyl)-1,4,9-triazaspiro[5.5] undecan-5-one], the Ki in experiment [2] amounted to 2650 nM; in experiment [3], 250 nM.

For the compound `Cc1cc(C)nc(N2CCC3(CCN(Cc4nn(C)nc4-c4ccccc4)C3=O)CC2)n1` [Example 3.24, 8-(4,6-dimethylpyrimidin-2-yl)-2-((2-methyl-5-phenyl-2H-1,2,3-triazol-4-yl)methyl)-2,8-diazaspiro[4.5]decan-1-one], the inhibition at 10 µM in experiment [2] is 25%. The Ki in experiment [3] is 117 nM.

Take `COc1ccnc(N2CCC3(CCN(Cc4c[nH]c5ccccc45)C3=O)C2)c1` (stereo not shown) [Example 5.30, 2-((1H-indol-3-yl)methyl)-7-(4-methoxypyridin-2-yl)-2,7-diazaspiro[4.4]nonan-1-one]: the Ki came to 4350 nM in experiment [2] and 193 nM in experiment [3].

As to `Cc1cc(C#N)nc(N2CCC3(CC2)NCCN(Cc2nc(C)oc2-c2ccccc2)C3=O)n1` [Example 1.21, 6-Methyl-2-(4-((2-methyl-5-phenyloxazol-4-yl)methyl)-5-oxo-1,4,9-triazaspiro[5.5]undecan-9-yl) pyrimidine-4-carbonitrile], in experiment [2], the inhibition at 10 µM was 29%. Further, the Ki in experiment [3] worked out at 337 nM.

For `Cn1ccc2c(CN3C(=O)COCC34CCN(c3cnc5ccccc5n3)CC4)cccc21` [Example 8.10, 1-((1-Methyl-1H-indol-4-yl)methyl)-9-(quinoxalin-2-yl)-4-oxa-1,9-diazaspiro[5.5]undecan-2-one], the Ki in experiment [2] is 265 nM; in experiment [3], 202 nM.

With `Cc1cc(C)nc(N2CCC3(CC2)NCCN(Cc2nn(C)nc2-c2ccccc2)C3=O)n1` [Example 1.83, 9-(4,6-dimethyl-pyrimidin-2-yl)-4-((2-methyl-5-phenyl-2H-1,2,3-triazol-4-yl)methyl)-1,4,9-triazaspiro[5.5] undecan-5-one], the Ki stood at 4450 nM in experiment [2] and 240 nM in experiment [3].

The values above are taken from US20120165331A1, “Di/tri-aza-spiro-C9-C11alkanes” (priority 2010, published 2012).
